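Grown in 96-well plates, cells were treated for 48 hours with each compound at five concentrations. Insufficient inhibition: endpoint recorded as highest concentration tested. GI50 = concentration required for 50% inhibition of growth.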 The source made the active and inactive calls. No stated cut-off is given here; in the data, active = GI50 up to about 1.1 µM and inactive = higher.
How the values were obtained:
Assay in all cases: growth of human tumour cells (NCI), 48 h
[1] = tested on: 786-0
[2] = tested on: A549
[3] = tested on: ACHN
[4] = tested on: BT-549
[5] = tested on: CAKI-1
[6] = tested on: CCRF-CEM
[7] = tested on: COLO 205
[8] = tested on: DU-145
[9] = tested on: EKVX
[10] = tested on: HCC 2998
[11] = tested on: HCT-116
[12] = tested on: HCT-15
[13] = tested on: HL-60
[14] = tested on: HOP-62
[15] = tested on: HT-29
[16] = tested on: Hs-578T
[17] = tested on: IGROV-1
[18] = tested on: K562
[19] = tested on: KM12
[20] = tested on: LOX IMVI
[21] = tested on: M14
[22] = tested on: MCF7
[23] = tested on: MDA-MB-231
[24] = tested on: MDA-MB-435
[25] = tested on: MDA-N
[26] = tested on: MOLT-4
[27] = tested on: Malme-3M
[28] = tested on: NCI-H226
[29] = tested on: NCI-H23
[30] = tested on: NCI-H460
[31] = tested on: NCI-H522
[32] = tested on: NCI/ADR-RES
[33] = tested on: OVCAR-3
[34] = tested on: OVCAR-4
[35] = tested on: OVCAR-5
[36] = tested on: OVCAR-8
[37] = tested on: PC-3
[38] = tested on: RPMI-8226
[39] = tested on: RXF 393
[40] = tested on: SF-268
[41] = tested on: SF-295
[42] = tested on: SF-539
[43] = tested on: SK-MEL-28
[44] = tested on: SK-MEL-2
[45] = tested on: SK-MEL-5
[46] = tested on: SK-OV-3
[47] = tested on: SN12C
[48] = tested on: SNB-19
[49] = tested on: SNB-75
[50] = tested on: SR
[51] = tested on: SW-620
[52] = tested on: T47D
[53] = tested on: TK-10
[54] = tested on: U-251
[55] = tested on: UACC-257
[56] = tested on: UACC-62
[57] = tested on: UO-31
[58] = tested on: HOP-92
[59] = tested on: A498

## COc1ccc(N(C)S(=O)(=O)c2ccccc2)cc1
[1]
  GI50: > 100 µM (inactive)
[2]
  GI50: > 100 µM (inactive)
[3]
  GI50: > 100 µM (inactive)
[4]
  GI50: > 100 µM (inactive)
[5]
  GI50: > 100 µM (inactive)
[6]
  GI50: > 100 µM (inactive)
[7]
  GI50: > 100 µM (inactive)
[8]
  GI50: > 100 µM (inactive)
[9]
  GI50: > 100 µM (inactive)
[10]
  GI50: 56 µM (inactive)
[11]
  GI50: > 100 µM (inactive)
[12]
  GI50: > 100 µM
[13]
  GI50: > 100 µM (inactive)
[14]
  GI50: > 100 µM (inactive)
[15]
  GI50: > 100 µM (inactive)
[16]
  GI50: > 100 µM (inactive)
[17]
  GI50: > 100 µM (inactive)
[18]
  GI50: 28.5 µM (inactive)
[19]
  GI50: > 100 µM (inactive)
[20]
  GI50: > 100 µM (inactive)
[21]
  GI50: > 100 µM (inactive)
[22]
  GI50: > 100 µM (inactive)
[23]
  GI50: > 100 µM (inactive)
[24]
  GI50: 59.2 µM (inactive)
[25]
  GI50: > 100 µM (inactive)
[26]
  GI50: 29.4 µM (inactive)
[27]
  GI50: > 100 µM (inactive)
[28]
  GI50: > 100 µM (inactive)
[29]
  GI50: 67.1 µM (inactive)
[30]
  GI50: 94.8 µM (inactive)
[31]
  GI50: > 100 µM (inactive)
[32]
  GI50: > 100 µM (inactive)
[33]
  GI50: > 100 µM (inactive)
[34]
  GI50: > 100 µM (inactive)
[35]
  GI50: > 100 µM (inactive)
[36]
  GI50: > 100 µM (inactive)
[37]
  GI50: 72.1 µM (inactive)
[38]
  GI50: 86.9 µM (inactive)
[39]
  GI50: > 100 µM (inactive)
[40]
  GI50: > 100 µM (inactive)
[41]
  GI50: > 100 µM (inactive)
[42]
  GI50: > 100 µM (inactive)
[43]
  GI50: > 100 µM (inactive)
[44]
  GI50: > 100 µM (inactive)
[45]
  GI50: 61.8 µM (inactive)
[46]
  GI50: > 100 µM (inactive)
[47]
  GI50: > 100 µM (inactive)
[48]
  GI50: > 100 µM (inactive)
[49]
  GI50: > 100 µM (inactive)
[50]
  GI50: 87.9 µM (inactive)
[51]
  GI50: > 100 µM (inactive)
[52]
  GI50: 53.1 µM (inactive)
[53]
  GI50: > 100 µM (inactive)
[54]
  GI50: > 100 µM (inactive)
[55]
  GI50: > 100 µM (inactive)
[56]
  GI50: 75 µM (inactive)
[57]
  GI50: > 100 µM (inactive)

## O=C(O)c1ccc(NNC(=O)c2cccc3c(=O)c4ccccc4[nH]c23)cc1
[1]
  GI50: > 100 µM (inactive)
[2]
  GI50: > 100 µM (inactive)
[3]
  GI50: 74.1 µM (inactive)
[4]
  GI50: 85.7 µM (inactive)
[5]
  GI50: > 100 µM (inactive)
[6]
  GI50: 66.2 µM (inactive)
[7]
  GI50: > 100 µM (inactive)
[8]
  GI50: > 100 µM (inactive)
[9]
  GI50: 57.9 µM (inactive)
[10]
  GI50: > 100 µM (inactive)
[11]
  GI50: > 100 µM (inactive)
[12]
  GI50: > 100 µM
[13]
  GI50: 50.8 µM (inactive)
[14]
  GI50: > 100 µM (inactive)
[58]
  GI50: 65 µM (inactive)
[15]
  GI50: > 100 µM (inactive)
[16]
  GI50: > 100 µM (inactive)
[17]
  GI50: > 100 µM (inactive)
[18]
  GI50: 58.6 µM (inactive)
[19]
  GI50: > 100 µM (inactive)
[20]
  GI50: 44.6 µM (inactive)
[21]
  GI50: > 100 µM (inactive)
[22]
  GI50: > 100 µM (inactive)
[23]
  GI50: 75.3 µM (inactive)
[24]
  GI50: > 100 µM (inactive)
[25]
  GI50: > 100 µM (inactive)
[26]
  GI50: 78.9 µM (inactive)
[27]
  GI50: 97.9 µM (inactive)
[28]
  GI50: > 100 µM (inactive)
[29]
  GI50: > 100 µM (inactive)
[30]
  GI50: 92.9 µM (inactive)
[31]
  GI50: 25.4 µM (inactive)
[32]
  GI50: > 100 µM (inactive)
[33]
  GI50: > 100 µM (inactive)
[34]
  GI50: > 100 µM (inactive)
[35]
  GI50: > 100 µM (inactive)
[36]
  GI50: > 100 µM (inactive)
[37]
  GI50: > 100 µM (inactive)
[38]
  GI50: > 100 µM (inactive)
[39]
  GI50: > 100 µM (inactive)
[40]
  GI50: > 100 µM (inactive)
[41]
  GI50: > 100 µM (inactive)
[42]
  GI50: > 100 µM (inactive)
[43]
  GI50: > 100 µM (inactive)
[44]
  GI50: > 100 µM (inactive)
[45]
  GI50: 55.5 µM (inactive)
[46]
  GI50: > 100 µM (inactive)
[47]
  GI50: > 100 µM (inactive)
[48]
  GI50: > 100 µM (inactive)
[49]
  GI50: > 100 µM (inactive)
[50]
  GI50: 93.5 µM (inactive)
[51]
  GI50: > 100 µM (inactive)
[52]
  GI50: 31.6 µM (inactive)
[53]
  GI50: > 100 µM (inactive)
[54]
  GI50: 80.7 µM (inactive)
[55]
  GI50: > 100 µM (inactive)
[56]
  GI50: > 100 µM (inactive)
[57]
  GI50: 89.7 µM (inactive)

## CC(=O)N[C@@H](Cc1ccc(O)cn1)C(=O)NC1CCCCC1
[1]
  GI50: > 100 µM (inactive)
[59]
  GI50: > 100 µM (inactive)
[2]
  GI50: > 100 µM (inactive)
[3]
  GI50: > 100 µM (inactive)
[4]
  GI50: > 100 µM (inactive)
[5]
  GI50: > 100 µM (inactive)
[6]
  GI50: > 100 µM (inactive)
[7]
  GI50: > 100 µM (inactive)
[8]
  GI50: > 100 µM (inactive)
[9]
  GI50: > 100 µM (inactive)
[10]
  GI50: > 100 µM (inactive)
[11]
  GI50: > 100 µM (inactive)
[12]
  GI50: > 100 µM
[14]
  GI50: > 100 µM (inactive)
[58]
  GI50: > 100 µM (inactive)
[15]
  GI50: > 100 µM (inactive)
[16]
  GI50: > 100 µM (inactive)
[17]
  GI50: > 100 µM (inactive)
[18]
  GI50: > 100 µM (inactive)
[19]
  GI50: > 100 µM (inactive)
[20]
  GI50: > 100 µM (inactive)
[21]
  GI50: > 100 µM (inactive)
[22]
  GI50: > 100 µM (inactive)
[23]
  GI50: > 100 µM (inactive)
[24]
  GI50: > 100 µM (inactive)
[25]
  GI50: > 100 µM (inactive)
[26]
  GI50: > 100 µM (inactive)
[28]
  GI50: > 100 µM (inactive)
[29]
  GI50: > 100 µM (inactive)
[31]
  GI50: 30.3 µM (inactive)
[32]
  GI50: > 100 µM (inactive)
[33]
  GI50: > 100 µM (inactive)
[34]
  GI50: > 100 µM (inactive)
[35]
  GI50: > 100 µM (inactive)
[36]
  GI50: > 100 µM (inactive)
[37]
  GI50: > 100 µM (inactive)
[38]
  GI50: > 100 µM (inactive)
[40]
  GI50: > 100 µM (inactive)
[41]
  GI50: > 100 µM (inactive)
[42]
  GI50: > 100 µM (inactive)
[43]
  GI50: > 100 µM (inactive)
[44]
  GI50: > 100 µM (inactive)
[45]
  GI50: > 100 µM (inactive)
[46]
  GI50: > 100 µM (inactive)
[47]
  GI50: > 100 µM (inactive)
[48]
  GI50: > 100 µM (inactive)
[50]
  GI50: > 100 µM (inactive)
[51]
  GI50: > 100 µM (inactive)
[52]
  GI50: > 100 µM (inactive)
[53]
  GI50: > 100 µM (inactive)
[54]
  GI50: > 100 µM (inactive)
[55]
  GI50: > 100 µM (inactive)
[56]
  GI50: > 100 µM (inactive)
[57]
  GI50: > 100 µM (inactive)

Source: ChEMBL document CHEMBL1201862, “PubChem BioAssay data set” (2004)
